Data from ChEMBL document CHEMBL5728524, “Apoptosis signal-regulating kinase inhibitors and uses thereof” (2021).

Biological target: T1, Mitogen-activated protein kinase kinase kinase 5 (Homo sapiens, UniProt Q99683)
T1 sequence (Q99683 whole entry): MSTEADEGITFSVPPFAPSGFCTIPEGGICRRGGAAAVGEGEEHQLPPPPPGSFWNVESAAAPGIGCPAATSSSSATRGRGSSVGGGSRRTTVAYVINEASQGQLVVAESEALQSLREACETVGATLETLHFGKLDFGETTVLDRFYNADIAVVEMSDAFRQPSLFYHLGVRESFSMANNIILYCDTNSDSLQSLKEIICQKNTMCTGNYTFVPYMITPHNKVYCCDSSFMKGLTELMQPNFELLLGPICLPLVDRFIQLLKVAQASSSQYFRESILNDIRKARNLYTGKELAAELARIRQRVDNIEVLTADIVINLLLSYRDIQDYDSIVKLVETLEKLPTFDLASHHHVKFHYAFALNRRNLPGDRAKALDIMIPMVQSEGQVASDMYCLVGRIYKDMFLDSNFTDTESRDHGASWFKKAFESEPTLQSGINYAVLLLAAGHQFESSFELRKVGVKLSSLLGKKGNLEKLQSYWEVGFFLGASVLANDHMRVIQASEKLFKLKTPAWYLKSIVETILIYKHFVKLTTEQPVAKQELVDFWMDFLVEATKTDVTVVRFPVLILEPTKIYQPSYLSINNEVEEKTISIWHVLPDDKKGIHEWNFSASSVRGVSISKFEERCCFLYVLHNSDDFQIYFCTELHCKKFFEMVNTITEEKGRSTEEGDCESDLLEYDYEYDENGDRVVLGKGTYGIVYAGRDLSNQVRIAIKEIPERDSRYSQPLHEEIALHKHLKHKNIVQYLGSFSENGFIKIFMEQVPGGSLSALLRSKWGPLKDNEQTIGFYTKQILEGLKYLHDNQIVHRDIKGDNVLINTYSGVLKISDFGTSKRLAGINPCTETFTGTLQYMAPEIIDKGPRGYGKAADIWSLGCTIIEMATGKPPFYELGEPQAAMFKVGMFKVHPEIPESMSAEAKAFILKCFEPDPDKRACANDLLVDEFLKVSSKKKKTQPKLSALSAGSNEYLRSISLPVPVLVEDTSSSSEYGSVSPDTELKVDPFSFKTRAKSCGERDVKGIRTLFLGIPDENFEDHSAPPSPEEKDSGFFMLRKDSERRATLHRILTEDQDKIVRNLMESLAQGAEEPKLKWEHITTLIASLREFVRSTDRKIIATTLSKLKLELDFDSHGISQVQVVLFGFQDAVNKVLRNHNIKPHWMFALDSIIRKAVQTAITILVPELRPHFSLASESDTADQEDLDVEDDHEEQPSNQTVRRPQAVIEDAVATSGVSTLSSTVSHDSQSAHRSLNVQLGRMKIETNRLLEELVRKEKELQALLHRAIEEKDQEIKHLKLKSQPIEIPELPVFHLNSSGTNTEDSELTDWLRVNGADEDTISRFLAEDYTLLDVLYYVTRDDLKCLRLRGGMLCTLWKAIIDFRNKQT
Assay: Biochemical Assay: The binding of compounds to ASK1 were determined using DiscoverX's proprietary technology. […] The assay is performed by combining three components: DNA-tagged ASK1 kinase; immobilized ligand; and a test compound. The ability of the test compound to compete with the immobilized ligand is measured via quantitative PCR of the DNA tag. […] The liganded beads were blocked with excess biotin and washed with blocking buffer (SeaBlock (Pierce), 1% BSA, 0.05% Tween 20, 1 mM DTT) to remove unbound ligand and to reduce nonspecific binding. […] Kds were determined using an 11-point 3-fold compound dilution series with three DMSO control points. […] The compounds were then diluted directly into the assays such that the final concentration of DMSO was 0.9%. All reactions were performed in polypropylene 384-well plate. […] The kinase concentration in the eluates was measured by qPCR. Most Kds were determined using a compound top concentration=30,000 nM.

Row | Compound | Kd
1 | Cc1ncc(-c2ccc3c(c2)C(=O)Nc2cccc(n2)-c2nncn2CCCCO3)cc1F | < 100 nM
2 | O=C1Nc2cccc(n2)-c2nncn2CCCCOc2ccc(-c3ccc(CCF)nc3)cc21 | < 100 nM
